The NIST ThermoML archive (doi:10.1021/je060271a)
Several values for one entry are separate records, joined by “and”; a condition that tells them apart may be missing. Equal entries are not always repeated.

Details: 323.15 K, Liquid, Vibrating tube method

CCCCCCCC(=O)OCC(COC(=O)CCCCCCC)(COC(=O)CCCCCCC)COC(=O)CCCCCCC [pentaerythritol tetraoctanoate]
Details	mass density
3786.1 kPa	943.3 kg/m3
3800.8 kPa	943.3 kg/m3
3818.1 kPa	943.3 kg/m3
3832.3 kPa	943.3 kg/m3
3846.9 kPa	943.3 kg/m3
3894.9 kPa	943.3 kg/m3
4078 kPa	943.4 kg/m3
4095.3 kPa	943.5 kg/m3
4116.3 kPa	943.5 kg/m3
4133.4 kPa	943.5 kg/m3
4151.5 kPa	943.4 kg/m3
4169.5 kPa	943.5 kg/m3
4190.6 kPa	943.5 kg/m3
4208.3 kPa	943.5 kg/m3
4239.4 kPa	943.7 kg/m3
4240.5 kPa	943.6 kg/m3
4244.3 kPa	943.6 kg/m3
4247.1 kPa	943.6 kg/m3
4247.4 kPa	943.5 kg/m3
4247.6 kPa	943.5 kg/m3
4248.6 kPa	943.5 kg/m3
4249.3 kPa	943.5 kg/m3 and 943.6 kg/m3
4250.7 kPa	943.7 kg/m3
4258.1 kPa	943.6 kg/m3
4267.5 kPa	943.7 kg/m3
4277.9 kPa	943.5 kg/m3
4287.4 kPa	943.5 kg/m3
4298 kPa	943.6 kg/m3
4315.8 kPa	943.6 kg/m3
4334.7 kPa	943.5 kg/m3
4353.7 kPa	943.6 kg/m3
4376.6 kPa	943.5 kg/m3
4396.7 kPa	943.6 kg/m3
4416.4 kPa	943.8 kg/m3
4436.5 kPa	943.7 kg/m3
4522.7 kPa	943.7 kg/m3
4548.7 kPa	943.7 kg/m3
4571 kPa	943.8 kg/m3
4604.4 kPa	943.8 kg/m3
4618.8 kPa	943.7 kg/m3
4647.7 kPa	943.8 kg/m3
4665.2 kPa	943.8 kg/m3
4679.7 kPa	943.8 kg/m3
4709.7 kPa	943.8 kg/m3
4727.3 kPa	943.9 kg/m3
4891.1 kPa	943.9 kg/m3
4907.3 kPa	944 kg/m3
4923.3 kPa	944 kg/m3
4942.8 kPa	944.1 kg/m3
4959.8 kPa	943.9 kg/m3
4976.6 kPa	944 kg/m3
4996.1 kPa	944 kg/m3
5013.6 kPa	944 kg/m3
5030.7 kPa	944 kg/m3
5047.7 kPa	944.1 kg/m3
5068.6 kPa	944.1 kg/m3
5086.9 kPa	944.1 kg/m3
5104.6 kPa	944.2 kg/m3
5218.8 kPa	944.1 kg/m3
5237.3 kPa	944.2 kg/m3
5255.9 kPa	944.1 kg/m3
5277.4 kPa	944 kg/m3
5296.3 kPa	944.3 kg/m3
5316.3 kPa	944.2 kg/m3
5355 kPa	944.3 kg/m3
5378.7 kPa	944.3 kg/m3
5681.4 kPa	944.5 kg/m3
5729.8 kPa	944.6 kg/m3
5752.1 kPa	944.5 kg/m3
5847.4 kPa	944.5 kg/m3
5898.9 kPa	944.7 kg/m3
5922.8 kPa	944.6 kg/m3
5946.5 kPa	944.7 kg/m3
5970.5 kPa	944.6 kg/m3
5999.4 kPa	944.7 kg/m3
6024.1 kPa	944.7 kg/m3
6049 kPa	944.6 kg/m3
6104.5 kPa	944.9 kg/m3
6129.2 kPa	944.8 kg/m3
6154.4 kPa	944.8 kg/m3
6185.7 kPa	944.9 kg/m3
6211.6 kPa	944.7 kg/m3
6413.9 kPa	945 kg/m3
6442.7 kPa	945.1 kg/m3
6473 kPa	945 kg/m3
6509.3 kPa	944.9 kg/m3
6534.3 kPa	945 kg/m3
6561.1 kPa	945 kg/m3
6584.4 kPa	945 kg/m3
6606.7 kPa	945 kg/m3
6623 kPa	945.2 kg/m3
6640.9 kPa	945.1 kg/m3
6655.8 kPa	945.2 kg/m3
6670.8 kPa	945.1 kg/m3
6686 kPa	945.1 kg/m3
6704.2 kPa	945 kg/m3
6719.4 kPa	945.2 kg/m3
6735.1 kPa	945.2 kg/m3
6749.8 kPa	945.1 kg/m3
6768.8 kPa	945.2 kg/m3
6784.3 kPa	945.2 kg/m3
6800.4 kPa	945.2 kg/m3
6817 kPa	945.2 kg/m3
6835.8 kPa	945.3 kg/m3
6851.9 kPa	945.3 kg/m3
6867.4 kPa	945.1 kg/m3
6883.1 kPa	945.3 kg/m3
6902.5 kPa	945.3 kg/m3
6918.5 kPa	945.3 kg/m3
6935.1 kPa	945.2 kg/m3
6954.5 kPa	945.3 kg/m3
6971.2 kPa	945.4 kg/m3
6987.8 kPa	945.3 kg/m3
7004.7 kPa	945.4 kg/m3
7025.5 kPa	945.3 kg/m3
7043.2 kPa	945.5 kg/m3
7059.8 kPa	945.4 kg/m3
7076.5 kPa	945.4 kg/m3
7096.9 kPa	945.4 kg/m3
7113.8 kPa	945.4 kg/m3
7131.3 kPa	945.5 kg/m3
7148.4 kPa	945.5 kg/m3
7169.6 kPa	945.5 kg/m3
7187.1 kPa	945.5 kg/m3
7204 kPa	945.6 kg/m3
7225.1 kPa	945.5 kg/m3
7243.2 kPa	945.4 kg/m3
7262.9 kPa	945.5 kg/m3
7281.3 kPa	945.5 kg/m3
7299.6 kPa	945.5 kg/m3
7320.9 kPa	945.6 kg/m3
7338.5 kPa	945.7 kg/m3
7357.3 kPa	945.6 kg/m3
7379.6 kPa	945.5 kg/m3
7397.7 kPa	945.7 kg/m3
7416.4 kPa	945.6 kg/m3
7435.3 kPa	945.6 kg/m3
7457.8 kPa	945.7 kg/m3
7476.9 kPa	945.7 kg/m3
7496.1 kPa	945.6 kg/m3
7515.6 kPa	945.7 kg/m3
7538.6 kPa	945.7 kg/m3
7558.1 kPa	945.7 kg/m3
7577.6 kPa	945.6 kg/m3
7601.3 kPa	945.7 kg/m3
7621.1 kPa	945.8 kg/m3
7640.6 kPa	945.7 kg/m3
7660.5 kPa	945.8 kg/m3
